Read-outs that look alike come from different tables or passages of the source.
Legend:
Hela = experiment: In vitro cytotoxicity, IC50 by MTT method, Hela; assay type: cell-based
Outline: (§1)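 MTT viability, 48 h exposure: cells 10^5/ml in RPMI1640 + 10% FBS, 37 °C/5% CO2; MTT 4 h, DMSO solubilisation, A490.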

PLA-801 = experiment: In vitro cytotoxicity, IC50 by MTT method, PLA-801; assay type: cell-based
Outline: as §1

NIH3T3 = experiment: In vitro cytotoxicity, IC50 by MTT method, NIH3T3; assay type: cell-based
Outline: as §1

S180 sarcoma = details: comparison table 43, in vivo, S180 sarcoma
Text: There was one group of 8 to 10 mice C57BL/6 and Kunming mice for the anti-tumor tests and two groups of mice for negative control.
(3) Sources of tumors: Lewis lung cancer cells and S180 sarcoma in mice, which were sub-cultured and maintained by Pharmacological Center of Shanghai Pharmaceutical Industrial Research Institute.
All samples were weighed and added a small amount of Tween-80 to facilitate dissolution during the experiment, and then 0.5% CMC-Na solution was gradually added to achieve the desired concentration. The volume for experiment was 0.5 ml/20 g mouse.
The medicaments were intraperitoneally administered once a day continuously for 10 days.
For the negative control group, a vehicle of the same volume was intraperitoneally administered once a day continuously for 10 days. For the positive control group, CTX was administered in the dosage of 30 mg/kg once a day continuously for 7 days.
In vivo anti-tumor subcutaneous vaccination in the axilla was employed. Wildly grown tumor source was taken under sterile conditions to form a cell suspension of about 1×10^7 ml by homogenization method. For a corresponding mouse host, the suspension was injected in the axilla in an amount of 0.2 ml/mouse. The next day, the medicaments were administered according to the design of the tests. About three weeks later, all the groups of animals were executed. The tumors were taken from the animals and weighed. The inhibition rate of tumors was calculated according to the following formula:
T: average tumor weight of treated group; C: average tumor weight of negative control group.

HepG2 = experiment: In vitro cytotoxicity, IC50 by MTT method, HepG2; assay type: cell-based, human
Outline: as §1

CT-DNA [1] = experiment: DNA thermal denaturation, determination of ΔTm; assay type: binding; details: 20 uM compound, Tm of CT-DNA alone 61° C.
Protocol: Experiments were carried out in PE buffer (1 mM Na2HPO4, 0.1 mM EDTA, pH 7.6) in a thermostatically controlled cell hold, and the quartz cuvette (1 cm path length) was heated by circulating water at a heating rate of 0.5° C./min from 25 to 95° C. Amsacrine and Doxorubicin Hydrochloride were used as standards. In all cases, the concentration of CT-DNA was 15 ug/ml. The ‘melting’ temperature Tm was taken as the mid-point of the hyperchromic transition.
ΔTm=Tm^drug-DNA complex−Tm^DNA alone
The ΔTm of each compound was calculated, Experiments were repeated three times, and an average value was calculated.

Lovo = experiment: In vitro cytotoxicity, IC50 by MTT method, Lovo; assay type: cell-based
Outline: as §1

Lewis lung cancer = details: comparison table 43, in vivo, Lewis lung cancer;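 note: mice implanted subcutaneously in the axilla with Lewis lung tumor cells, treated starting the following day, killed roughly three weeks after implantation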
BGC-823 = experiment: In vitro cytotoxicity, IC50 by MTT method, BGC-823; assay type: cell-based
Outline: as §1

Bel-7402 = experiment: In vitro cytotoxicity, IC50 by MTT method, Bel-7402; assay type: cell-based
Outline: as §1

CT-DNA [2] = experiment: UV absorption spectrum method with CT-DNA; assay type: binding; details: CT-DNA 40 ug/ml, compound 20 uM, 37° C. for 2 h, OD at 260 nm
Protocol: Compounds to be tested (20 uM) were added into the PE buffer solution, and its scan curve was identified by the spectrograph at a wavelength of from 200 to 400 nm. CT-DNA (40 ug/ml) and compounds to be tested (20 uM) were added into the PE buffer solution. The mixture was cultured at 37° C. for 2 h, and its scan curve was identified by the UV spectrograph at a wavelength of from 200 to 400 nm. […] After that, the OD value at 260 nm of the scan curve of the medicaments tested and that of the CT-DNA mixture OD value at 260 nm of the scan curve were calculated and compared to determine the influences of the medicaments tested on the UV absorption spectrum of the DNA molecules.

[3] = Solubility (physico-chemical data tables); details: qualitative
[4] = Homo sapiens, Hela cell strain, read-out: IC50 Hela
[5] = PLA-801 cell strain, read-out: IC50 PLA-801
[6] = Mus musculus, NIH3T3 cell strain, read-out: IC50 NIH3T3
[7] = Homo sapiens, HepG2 cell strain, read-out: IC50 HepG2
[8] = Homo sapiens, Lovo cell strain, read-out: IC50 Lovo
[9] = Homo sapiens, BGC-823, BGC823 cell strain, read-out: IC50 BGC823
[10] = Homo sapiens, Bel-7402, Bel7402 cell strain, read-out: IC50 Bel7402
[11] = Hela cell strain, read-out: IC50 Hela
[12] = NIH3T3 cell strain, read-out: IC50 NIH3T3
[13] = HepG2 cell strain, read-out: IC50 HepG2
[14] = Lovo cell strain, read-out: IC50 Lovo
[15] = BGC823 cell strain, read-out: IC50 BGC823
[16] = Bel7402 cell strain, read-out: IC50 Bel7402
[17] = Table 15, 1,3,9-substituted β-carboline derivatives
[18] = CT-DNA 15 ug/ml, PE buffer pH 7.6

| SMILES | ΔTm (CT-DNA [1]; CT-DNA thermal denaturation) | Influence on the UV absorption of DNA (CT-DNA [2]) | melting point | IC50 (Hela; [4]) | IC50 (PLA-801; [5]) | IC50 (NIH3T3; [6]) | IC50 (HepG2; [7]) | IC50 (Lovo; [8]) | IC50 (BGC-823; [9]) | IC50 (Bel-7402; [10]) | further results |
| --- | --- | --- | --- | --- | --- | --- | --- | --- | --- | --- | --- |
| COc1ccc2c(c1)[nH]c1c(C)nccc12 [Compound 1, reference compound] | 8.5 °C | reduce the UV absorption of DNA |  |  |  |  |  |  |  |  | IC50 (Hela; Homo sapiens, HeLa): 60 µM; IC50 (PLA-801): 50 µM; IC50 (NIH3T3; Mus musculus, NIH3T3): 60 µM; Inhibition rate (%) S180 sarcomata (S180 sarcoma): 15.3%; IC50 (HepG2; Homo sapiens, HepG2): 50 µM; IC50 (Lovo; Homo sapiens, LoVo): 70 µM; Inhibition rate (%) Lewis cancer (Lewis lung cancer): 34.1%; IC50 (BGC-823; Homo sapiens, BGC-823): 70 µM; IC50 (Bel-7402; Homo sapiens, Bel-7402): 20 µM |
| COc1ccc2c3ccnc(C)c3n(Cc3c(F)c(F)c(F)c(F)c3F)c2c1 [Compound 7, 9-(2′,3′,4′,5′,6′-pentafluoro)benzyl-7-methoxy-1-methyl-β-carboline] | 7.5 °C |  |  |  |  |  |  |  |  |  | IC50 (Hela; Hela, MTT, read-out: IC50): 40 µM; IC50 (PLA-801; PLA-801, MTT, read-out: IC50): 420 µM; IC50 (NIH3T3; NIH3T3, MTT, read-out: IC50): 50 µM; IC50 (HepG2; HepG2, MTT, read-out: IC50): 50 µM; IC50 (Lovo; Lovo, MTT, read-out: IC50): 40 µM; IC50 (BGC-823; BGC823, MTT, read-out: IC50): 20 µM; IC50 (Bel-7402; BeI7402, MTT, read-out: IC50): 40 µM |
| CCCCOC(=O)c1cc2c3ccccc3n(CC)c2cn1 [Compound 39, butyl 9-ethyl-β-carboline-3-carboxylate] | 1.6 °C |  | 86 to 88 °C | 70 µM | 110 µM | 80 µM | 70 µM | 80 µM | 80 µM | 70 µM |  |
| CC(=O)COc1cc2c3ccccc3n(Cc3ccccc3)c2cn1 [Compound 43, 9-benzyl-3-acetylmethoxy-β-carboline] |  | increase the UV absorption of DNA | 141 to 142 °C | 500 µM | 250 µM | > 3000 µM | 300 µM | > 3000 µM | > 3000 µM | 130 µM |  |
| O=C(Cn1c2ccccc2c2cc(C(=O)O)ncc21)c1ccccc1 [Compound 50, 9-acetophenone-β-carboline-3-carboxylic acid] |  |  |  |  | 140 µM |  |  |  |  |  | Solubility ([3]; Table 12, 3,9-disubstituted β-carboline derivatives): soluble in DMSO; IC50 (Hela; [11]): 70 µM; IC50 (NIH3T3; [12]): 50 µM; IC50 (HepG2; [13]): 90 µM; IC50 (Lovo; [14]): 70 µM; IC50 (BGC-823; [15]): 60 µM; IC50 (Bel-7402; [16]): 140 µM |
| Cc1nc(C(=O)O)cc2c3ccccc3n(Cc3ccccc3)c12 [Compound 64, 9-benzyl-1-methyl-β-carboline-3-carboxylic acid] |  |  | 246 to 248 °C | 370 µM | 410 µM | 140 µM | 280 µM | 200 µM | 280 µM | 690 µM | Solubility [3, 17]: soluble in DMSO |
| Cc1nc(C(=O)O)cc2c3ccccc3n(CC(=O)c3ccccc3)c12 [Compound 67, 9-acetophenone-1-methyl-β-carboline-3-carboxylic acid] |  |  |  |  | 2000 µM |  |  |  |  |  | Solubility [3, 17]: soluble in DMSO; IC50 (Hela; [11]): 2480 µM; IC50 (NIH3T3; [12]): 1460 µM; IC50 (HepG2; [13]): 2230 µM; IC50 (Lovo; [14]): 1340 µM; IC50 (BGC-823; [15]): 1520 µM; IC50 (Bel-7402; [16]): > 3000 µM |
| CCCc1nc(C(=O)O)cc2c3ccccc3n(Cc3ccccc3)c12 [Compound 74, 9-benzyl-1-propyl-β-carboline-3-carboxylic acid] |  |  | 193 to 194 °C | 160 µM | 270 µM | 160 µM | 170 µM | 140 µM | 270 µM | 180 µM | Solubility [3, 17]: soluble in DMSO |
| c1ccc2c(c1)[nH]c1cnccc12 [Compound 80, β-carboline] | 3.1 °C |  |  |  |  |  |  |  |  |  | IC50 (Hela; Homo sapiens, HeLa, read-out: IC50 Hela): 350 µM; IC50 (PLA-801; read-out: IC50 PLA-801): 20 µM; IC50 (NIH3T3; Mus musculus, NIH3T3, read-out: IC50 NIH3T3): 20 µM; IC50 (HepG2; Homo sapiens, HepG2, read-out: IC50 HepG2): 230 µM; IC50 (Lovo; Homo sapiens, LoVo, read-out: IC50 Lovo): 40 µM; IC50 (BGC-823; Homo sapiens, BGC-823, read-out: IC50 BGC823): 270 µM; IC50 (Bel-7402; Homo sapiens, Bel-7402, read-out: IC50 Bel7402): 380 µM |
| Cn1c2ccccc2c2ccncc21 [Compound 81, 9-methyl-β-carboline] | 3.3 °C |  |  | 330 µM | 220 µM | 120 µM | 100 µM | 220 µM | 200 µM | 300 µM |  |
| CCn1c2ccccc2c2ccncc21 [Compound 82, 9-ethyl-β-carboline] | 4.2 °C | reduce the UV absorption of DNA |  | 230 µM | 130 µM | 100 µM | 170 µM | 160 µM | 170 µM | 310 µM |  |
| CCCCn1c2ccccc2c2ccncc21 [Compound 83, 9-n-butyl-β-carboline] | 2.4 °C | reduce the UV absorption of DNA | 78 to 79 °C | 90 µM | 130 µM | 80 µM | 100 µM | 130 µM | 100 µM | 160 µM |  |
| COc1cccc2c1C(=O)c1c(O)c3c(c(O)c1C2=O)C[C@@](O)(C(=O)CO)C[C@@H]3O[C@H]1C[C@H](N)[C@H](O)[C@H](C)O1 [adriamycin, reference compound] | 10.8 °C | reduce the UV absorption of DNA |  |  |  |  |  |  |  |  | ΔTm (CT-DNA [1]; [18]): 10.8 °C |
| CC[C@@]1(O)C(=O)OCc2c1cc1n(c2=O)Cc2cc3ccccc3nc2-1 [camptothecin, reference compound] | −2.5 °C | increase the UV absorption of DNA |  |  |  |  |  |  |  |  | ΔTm (CT-DNA [1]; [18]): −2.5 °C |
